These results are taken from paper PMC11020896, “Development of a ^99mTc-labeled tetrazine for pretargeted SPECT imaging using an alendronic acid-based bone targeting model” (PLOS ONE, 2024).

The test system of data set [1] is Healthy Balb/c female mice. Nature of the data set: SPECT/CT quantitative image analysis of 99mTc-labeled Tzs (pretargeted with Aln-TCO, saline control, or directly targeted). Format: in vivo. Particulars: for blood pool activity: directly targeted Aln-TCO. The protocol: (§1) The study was conducted in compliance with the guidelines set by the Canadian Council on Animal Care (CCAC) and approved by the Animal Care Committee (ACC) at the University of British Columbia (A20-0132). Healthy Balb/c female mice (~25 g) were anesthetized using isoflurane delivered via a precision vaporizer (5% in oxygen for induction, between 1.5 and 2.5% in oxygen for maintenance) and received 100 μL of a 2 mg/kg solution of Aln-TCO in saline (pretargeted groups), or 100 μL saline (control groups) via intravenous injection. After 1 h, mice were anesthetized again and received another i.v. injection containing 100 μL of ^99mTc labeled Tzs in saline, with an average activity of 17.58 MBq, as well as a subcutaneous injection of Lactated Ringer’s solution (0.5 mL) to ensure hydration before each imaging scan. After the injection, a VECTor/CT multimodal preclinical scanner (MILabs, The Netherlands) equipped with a HEUHR-1 mm mouse pinhole collimator was used to obtain static whole-body images. The first scans were obtained with a single frame lasting 25 minutes, followed by scans at 2- and 6-hours post-injection, each with a single frame lasting 40 and 50 minutes, respectively.
Throughout the scanning process, mice were maintained under isoflurane anesthesia and kept warm with a heating pad to ensure constant body temperature. Following each SPECT acquisition, a whole-body CT scan was performed to obtain anatomical information and the two images were registered. The ^99mTc photopeak window was centered at 140 keV with a 25% energy window width. SPECT image reconstructions were carried out using a pixel-ordered subset expectation maximization (POSEM) algorithm with 16 subsets, 6 iterations, and an isotropic 0.4 mm voxel grid to enable quantitative analysis. The images were decay corrected, and after CT registration, attenuation correction was applied. For visual representation, the reconstructed volumes of SPECT scans were post-filtered with a 3D Gaussian filter. CT scans were conducted using a tube setting of 55 kV and 615 μA, and 2 frames of 180 projections over 360 degrees were captured in step and shoot rotation mode. The acquired projection data was reconstructed using SkyScan NRecon software to generate a 3D CT image on 0.169 mm^3 voxel size. Volumes of interest (VOIs), in the left ventricle of the heart (blood pool), liver (n = 3), bladder, kidney (n = 2), shoulder and knee joint (n = 2, respectively) were manually defined using AMIDE [49] (v.1.0.5) to determine the time activity pattern per target organ. The average organ activity per volume was obtained from the SPECT images and the %ID/g of tissue were extracted from each organ. To relate the scanner units (counts/pixel) to radioactivity concentration (MBq/mL), a calibration factor was determined scanning a source with a known concentration of ^99mTc. Following the last time imaging time point (6 h, except mice injected with ^99mTc-3, which were sacrificed 24 h p.i.), mice were sacrificed via CO2 asphyxiation under isoflurane anesthesia. Blood was recovered via cardiac puncture and organs of interest were dissected out, cleaned and weighed. The bone uptake of the shoulder was measured by measuring the activity of scapula and humerus, cut below the elbow joint, while knee uptake was measured in the femur, cut below the knee joint. […] The activity was quantified on a calibrated Cobra II Autogamma counter (Packard Instruments, USA) and decay corrected to the time of injection. […]

For data set [2], the system named is Healthy Balb/c female mice. The data set is described as follows: Post-mortem (ex vivo) biodistribution after last imaging time point, gamma counter. The class given is in vivo. The protocol:
as §1
Throughout the scanning process, mice were maintained under isoflurane anesthesia and kept warm with a heating pad to ensure constant body temperature. Following each SPECT acquisition, a whole-body CT scan was performed to obtain anatomical information and the two images were registered. The ^99mTc photopeak window was centered at 140 keV with a 25% energy window width. SPECT image reconstructions were carried out using a pixel-ordered subset expectation maximization (POSEM) algorithm with 16 subsets, 6 iterations, and an isotropic 0.4 mm voxel grid to enable quantitative analysis. The images were decay corrected, and after CT registration, attenuation correction was applied. For visual representation, the reconstructed volumes of SPECT scans were post-filtered with a 3D Gaussian filter. CT scans were conducted using a tube setting of 55 kV and 615 μA, and 2 frames of 180 projections over 360 degrees were captured in step and shoot rotation mode. The acquired projection data was reconstructed using SkyScan NRecon software to generate a 3D CT image on 0.169 mm^3 voxel size. Volumes of interest (VOIs), in the left ventricle of the heart (blood pool), liver (n = 3), bladder, kidney (n = 2), shoulder and knee joint (n = 2, respectively) were manually defined using AMIDE [49] (v.1.0.5) to determine the time activity pattern per target organ. The average organ activity per volume was obtained from the SPECT images and the %ID/g of tissue were extracted from each organ. To relate the scanner units (counts/pixel) to radioactivity concentration (MBq/mL), a calibration factor was determined scanning a source with a known concentration of ^99mTc. Following the last time imaging time point (6 h, except mice injected with ^99mTc-3, which were sacrificed 24 h p.i.), mice were sacrificed via CO2 asphyxiation under isoflurane anesthesia. Blood was recovered via cardiac puncture and organs of interest were dissected out, cleaned and weighed. The bone uptake of the shoulder was measured by measuring the activity of scapula and humerus, cut below the elbow joint, while knee uptake was measured in the femur, cut below the knee joint. Bone samples were thoroughly cleaned from muscle and connective tissue. The activity was quantified on a calibrated Cobra II Autogamma counter (Packard Instruments, USA) and decay corrected to the time of injection.

Where [3] appears, read: directly targeted Aln-TCO, biodistribution 6 h p.i., ratio of %ID/g.
Setting [4] is: directly targeted Aln-TCO, sacrificed 6 h p.i.

`O=C(O)CN(CCNC(=O)CCCC(=O)Nc1ccc(-c2nnc(-c3ccccn3)nn2)nc1)Cc1cccc(C(=O)O)n1` (99mTc complex, metal not drawn) [Tz 1, 6-(((carboxymethyl)(2-(5-oxo-5-((6-(6-(pyridin-2-yl)-1,2,4,5-tetrazin-3-yl)pyridin-3-yl)amino)pentanamido)ethyl)amino)methyl)picolinic acid]: in data set [1] (6 h p.i.), the “difference in blood pool activity, 1* vs 1a” value is on record as 15 fold. Further, the blood pool activity in data set [1] (image analysis, 0 h) is recorded as 27.35 ± 3.79 %ID/g. For the same compound, in data set [1] (image analysis, 0-6 h, directly targeted), the “liver activity over time” value is on record as “increase over time”. This compound also yielded a blood pool activity in data set [1] (image analysis, 6 h p.i.) of 3.66 ± 0.65 %ID/g. Moreover, in data set [2] (setting [3]), the Knee/Blood ratio is on record as 2.39 ± 0.09, the Knee/Liver ratio was determined as 0.17 ± 0.09, the Shoulder/Blood ratio amounted to 1.29 ± 0.30 and the Shoulder/Liver ratio amounted to 0.09 ± 0.30. In data set [2] (setting [4]), the “Bladder activity, post-mortem biodistribution” value came to 1.22 ± 0.04 % ID/g; the “Blood activity, post-mortem biodistribution” value was 3.82 ± 0.32 % ID/g; the “Brain activity, post-mortem biodistribution” value was 0.10 ± 0.01 % ID/g; the “Heart activity, post-mortem biodistribution” value was determined as 2.87 ± 0.27 % ID/g. Moreover, in data set [2] (setting [4]), the “Intestine activity, post-mortem biodistribution” value is given as 3.85 ± 0.49 % ID/g; the “Kidney activity, post-mortem biodistribution” value came to 9.04 ± 0.60 % ID/g; the “Knee activity, post-mortem biodistribution” value was 9.13 ± 0.73 % ID/g; the “Liver activity, post-mortem biodistribution” value is 54.39 ± 4.03 % ID/g. In addition, in data set [2] (setting [4]), the “Lung activity, post-mortem biodistribution” value is 6.70 ± 0.85 % ID/g; the “Muscle activity, post-mortem biodistribution” value is recorded as 0.31 ± 0.01 % ID/g; the “Pancreas activity, post-mortem biodistribution” value is 1.20 ± 0.20 % ID/g; the “Shoulder activity, post-mortem biodistribution” value amounted to 4.91 ± 1.43 % ID/g. In addition, in data set [2] (setting [4]), the “Spleen activity, post-mortem biodistribution” value amounted to 38.03 ± 4.69 % ID/g and the “Stomach activity, post-mortem biodistribution” value is 1.70 ± 0.10 % ID/g. In addition, the “uptake in liver and spleen” value in data set [2] (directly targeted, 6 h p.i.) is given as “strong uptake”.

For the compound `O=C(O)CN(CCNC(=O)CCOCCOCCOCCOCCOCCOCCOCCOCCNC(=O)CCCC(=O)Nc1ccc(-c2nncnn2)cc1)Cc1cccc(C(=O)O)n1` [Tz 4, 6-(38-((4-(1,2,4,5-tetrazin-3-yl)phenyl)amino)-2-(carboxymethyl)-6,34,38-trioxo-9,12,15,18,21,24,27,30-octaoxa-2,5,33-triazaoctatriacontyl)picolinic acid], the “bone accumulation, pretargeted vs. non-targeted group” value in data set [1] (image analysis of shoulder and knee at 0, 2 and 6 h p.i.) is on record as “did not show statistically significant bone uptake at any time point compared to the saline control”.
